13 compounds from patent US7001887B2, “Peptide derivatives” (priority 2001, dated 2006) can be followed below.

One experiment concerns the target human factor VIIa (Homo sapiens, UniProt P08709). Briefly: biochemical. The procedure: 1. Assay for FVIIa-inhibiting Activity
A 10 vol % DMSO solution of a test compound (20 μL) was mixed with 40 μL Thromborel®S (50 mg/mL, Dade Behring, GTS-200A), 20 μL Spectrozyme®fVIIa (5 mmol/L, American Diagnostica Inc., #217L), 20 μL Tris buffer (500 mmol/L Tris/HCl, pH 7.5, 1500 mmol/L NaCl, 50 mmol/L CaCl2) and 80 μL distilled water, followed by stirring. […] The initial reaction velocity was set to 100% in the case of adding 10 vol % DMSO alone, instead of a test compound. […] This concentration was defined as an IC50 value.

The target in another experiment is T1, human thrombin (Homo sapiens, UniProt P00734).
T1 construct: addition of 20 μ2L human thrombin (5 U/mL, SIGMA, T 1063); purchased SIGMA T 1063
Briefly: Assay for thrombin-inhibiting activity (chromogenic substrate FVR-pNa). Type of experiment: biochemical. The note with it: for Thrombin selectivity: ratio IC50 Thrombin / IC50 Factor VIIa.

The mark [1] stands for this setting: 50% inhibition of initial reaction velocity, room temperature, absorbance at 405 nm, read-out: IC50 Thrombin.

Read-outs that look alike come from different tables or passages of the source.

As usually defined, the IC50 is the concentration needed to halve the response being measured.

human factor VIIa, sequence (P08709 213-466 limits assumed): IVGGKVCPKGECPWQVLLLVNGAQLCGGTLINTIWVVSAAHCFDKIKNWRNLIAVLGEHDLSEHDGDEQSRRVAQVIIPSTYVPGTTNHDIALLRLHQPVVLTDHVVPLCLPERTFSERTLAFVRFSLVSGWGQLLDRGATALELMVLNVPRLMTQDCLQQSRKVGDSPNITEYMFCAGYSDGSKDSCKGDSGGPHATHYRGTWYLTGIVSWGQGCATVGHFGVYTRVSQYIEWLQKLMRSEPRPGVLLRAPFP
human factor VIIa, sequence (P08709 61-212 limits assumed): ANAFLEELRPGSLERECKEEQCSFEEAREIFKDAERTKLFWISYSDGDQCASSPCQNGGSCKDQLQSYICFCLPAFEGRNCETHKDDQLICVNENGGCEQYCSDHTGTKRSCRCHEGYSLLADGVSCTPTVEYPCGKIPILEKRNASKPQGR
human factor VIIa, sequence (P13726 33-295 partner): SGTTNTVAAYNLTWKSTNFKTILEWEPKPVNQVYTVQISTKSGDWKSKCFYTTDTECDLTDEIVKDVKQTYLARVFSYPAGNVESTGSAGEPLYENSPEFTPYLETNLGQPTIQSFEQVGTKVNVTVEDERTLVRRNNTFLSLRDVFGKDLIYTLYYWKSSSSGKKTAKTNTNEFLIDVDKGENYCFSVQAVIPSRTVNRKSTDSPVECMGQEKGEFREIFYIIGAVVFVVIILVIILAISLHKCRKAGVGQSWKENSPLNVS

Turning to `CCS(=O)(=O)N[C@H](Cc1c[nH]c2ccccc12)C(=O)N[C@@H](CCC(N)=O)C(=O)NCc1ccc(C(=N)N)cc1` [Example 5, N-(Ethylsulfonyl)-D-tryptophyl-N^1-(4-amidinobenzyl)-L-glutamide], the IC50 at human factor VIIa is 0.062 µM; at human thrombin (setting [1]), 5.88 µM. Besides, the Thrombin selectivity at human thrombin came out at 95.
The matching figures for `N=C(N)c1ccc(CNC(=O)[C@H](CCC(N)=O)NC(=O)[C@@H](Cc2c[nH]c3ccccc23)NS(=O)(=O)Cc2cccc(C(=O)O)c2)cc1` [Example 7]: 0.037 µM, 17.9 µM and 483.
In the case of `CCS(=O)(=O)N[C@H](Cc1c[nH]c2ccc(OCc3cccc(C(=O)O)c3)cc12)C(=O)N[C@@H](CCC(N)=O)C(=O)NCc1ccc(C(=N)N)cc1` [Example 22, 5-[(3-Carboxybenzyl)oxy]-N-(ethylsulfonyl)-D-tryptophyl-N^1-{4-[amino(imino)methyl]benzyl}-L-glutamide], the 50% inhibitory concentration (IC50) on human factor VIIa was 0.039 µM; at human thrombin (setting [1]), 17.5 µM.
With `CCS(=O)(=O)N[C@H](Cc1ccc(-c2ccccc2)cc1)C(=O)N[C@@H](CCC(N)=O)C(=O)NCc1ccc(C(=N)N)cc1` [Example 65], the IC50 on human thrombin (setting [1]) was 9.42 µM.
Take `N=C(N)c1ccc(CNC(=O)[C@H](CCC(N)=O)NC(=O)[C@H](N)Cc2ccc(-c3ccccc3)cc2)cc1` [Example 66]: the IC50 on human factor VIIa was 2.94 µM; at human thrombin (setting [1]), 59.1 µM. The Thrombin selectivity at human thrombin stood at 20.
As for `CCS(=O)(=O)N[C@H](Cc1ccc(-c2ccccc2)cc1)C(=O)N[C@@H](CCSC)C(=O)NCc1ccc(C(=N)N)cc1` [Example 67], the IC50 came to 0.341 µM on human factor VIIa and 2.28 µM at human thrombin. In addition, at human thrombin, the Thrombin selectivity is 1.
Regarding `CCS(=O)(=O)N[C@H](Cc1ccc(OC)cc1)C(=O)N[C@@H](CCC(N)=O)C(=O)NCc1ccc(C(=N)N)cc1` [Example 73], the concentration for half-maximal inhibition (IC50) was 0.081 µM at human factor VIIa and 0.397 µM at human thrombin (setting [1]). Besides, the Thrombin selectivity at human thrombin is reported as 5.
On to `CCS(=O)(=O)N[C@H](Cc1ccc(C(=O)c2ccccc2)cc1)C(=O)N[C@@H](CCC(N)=O)C(=O)NCc1ccc(C(=N)N)cc1` [Example 81], for which the half-maximal inhibitory concentration (IC50) against human factor VIIa is 0.177 µM; at human thrombin (setting [1]), 5.69 µM.
The matching figures for `CCS(=O)(=O)N[C@H](Cc1c[nH]c2ccc(C)cc12)C(=O)N[C@@H](CCC(N)=O)C(=O)NCc1ccc(C(=N)N)cc1` [Example 82]: 0.131 µM and 12.5 µM.
The matching figures for `CCCOc1ccc2[nH]cc(C[C@@H](NS(=O)(=O)CC)C(=O)N[C@@H](CCC(N)=O)C(=O)NCc3ccc(C(=N)N)cc3)c2c1` [Example 83]: 0.055 µM and 14.4 µM.
For `N=C(N)c1ccc(CNC(=O)[C@H](CCC(N)=O)NC(=O)[C@@H](Cc2c[nH]c3ccccc23)NS(=O)(=O)CC(=O)O)cc1` [Example 146], the IC50 at human factor VIIa was 0.153 µM; on human thrombin (setting [1]) it was 80.2 µM. For the same compound, on human thrombin, the Thrombin selectivity was 524.
For `CCS(=O)(=O)N[C@H](Cc1c[nH]c2ccc(OC)cc12)C(=O)N[C@@H](CCC(N)=O)C(=O)NCc1ccc(C(=N)N)cc1` [Example 148], the IC50 was found to be 0.065 µM on human factor VIIa and 8.33 µM at human thrombin (setting [1]).
The matching figures for `CCS(=O)(=O)N[C@H](Cc1c[nH]c2ccc(OCc3ccccc3)cc12)C(=O)N[C@@H](CCC(N)=O)C(=O)NCc1ccc(C(=N)N)cc1` [Example 170]: 0.037 µM and 9.42 µM.
